Measurements as given in ChEMBL document CHEMBL4229379, “Synthesis and structure-activity relationship of novel bisindole amidines active against MDR Gram-positive and Gram-negative bacteria” (Eur J Med Chem, 2018).
Values after ≈ are worked out from the molar mass of the structure shown.

How the values were obtained:
[1] = system: Staphylococcus epidermidis; test: Antibacterial activity against methicillin-sensitive Staphylococcus epidermidis ATCC 12228 after 18 hrs by CLSI broth microdilution method; format: functional; settings: ATCC 12228, 18 h
[2] = system: Staphylococcus epidermidis; test: Antibacterial activity against methicillin-resistant Staphylococcus epidermidis 12-8 after 18 hrs by CLSI broth microdilution method; format: functional; settings: 12-8, 18 h
[3] = system: Staphylococcus aureus; test: Antibacterial activity against methicillin-sensitive Staphylococcus aureus ATCC 29213 after 18 hrs by CLSI broth microdilution method; format: functional; settings: ATCC 29213, 18 h
[4] = system: Staphylococcus aureus; test: Antibacterial activity against methicillin-resistant Staphylococcus aureus 12-33 after 18 hrs by CLSI broth microdilution method; format: functional; settings: 12-33, 18 h
[5] = system: Enterococcus faecalis; test: Antibacterial activity against vancomycin-sensitive Enterococcus faecalis ATCC 29212 after 18 hrs by CLSI broth microdilution method; format: functional; settings: ATCC 29212, 18 h
[6] = system: Enterococcus faecalis; test: Antibacterial activity against vancomycin-resistant Enterococcus faecalis 09-9 after 18 hrs by CLSI broth microdilution method; format: functional; settings: 09-9, 18 h
[7] = system: Enterococcus faecium; test: Antibacterial activity against vancomycin-resistant Enterococcus faecium ATCC 700221 after 18 hrs by CLSI broth microdilution method; format: functional; settings: ATCC 700221, 18 h
[8] = system: Enterococcus faecium; test: Antibacterial activity against vancomycin-sensitive Enterococcus faecium 12-3 after 18 hrs by CLSI broth microdilution method; format: functional; settings: 12-3, 18 h
[9] = system: Escherichia coli; test: Antibacterial activity against extended-spectrum beta-lactamase deficient Escherichia coli ATCC 25922 after 18 hrs by CLSI broth microdilution method; format: functional; settings: ATCC 25922, 18 h
[10] = system: Escherichia coli; test: Antibacterial activity against extended-spectrum beta-lactamase harboring Escherichia coli 12-15 after 18 hrs by CLSI broth microdilution method; format: functional; settings: 12-15, 18 h
[11] = system: Klebsiella pneumoniae; test: Antibacterial activity against extended-spectrum beta-lactamase harboring Klebsiella pneumoniae ATCC 700603 after 18 hrs by CLSI broth microdilution method; format: functional; settings: Klebsiella pneumoniae, 700603, 18 h
[12] = system: Klebsiella pneumoniae; test: Antibacterial activity against new delhi metallo-beta-lactamase-1 harboring Klebsiella pneumoniae ATCC BAA-2146 after 18 hrs by CLSI broth microdilution method; format: functional; settings: ATCC BAA-2146, 18 h
[13] = system: Klebsiella pneumoniae; test: Antibacterial activity against extended-spectrum beta-lactamase harboring Klebsiella pneumoniae 12-8 after 18 hrs by CLSI broth microdilution method; format: functional; settings: 12-8, 18 h
[14] = system: Pseudomonas aeruginosa; test: Antibacterial activity against Pseudomonas aeruginosa ATCC 27853 after 18 hrs by CLSI broth microdilution method; format: functional; settings: ATCC 27853, 18 h
[15] = system: Acinetobacter calcoaceticus; test: Antibacterial activity against Acinetobacter calcoaceticus ATCC 19606 after 18 hrs by CLSI broth microdilution method; format: functional; settings: ATCC 19606, 18 h
[16] = system: Enterobacter cloacae; test: Antibacterial activity against Enterobacter cloacae ATCC 43560 after 18 hrs by CLSI broth microdilution method; format: functional; settings: ATCC 43560, 18 h
[17] = system: Proteus mirabilis; test: Antibacterial activity against Proteus mirabilis 12-6 after 18 hrs by CLSI broth microdilution method; format: functional; settings: 12-6, 18 h
[18] = Cytotoxicity against HEK293T cells assessed as reduction in cell viability after 48 hrs by MTS assay; format: cell-based, HEK-293T; settings: human
[19] = system: Staphylococcus epidermidis; test: Antibacterial activity against methicillin-sensitive Staphylococcus epidermidis 12-6 after 18 hrs by CLSI broth microdilution method; format: functional; settings: 12-6, 18 h
[20] = system: Staphylococcus aureus; test: Antibacterial activity against methicillin-resistant Staphylococcus aureus ATCC 33591 after 18 hrs by CLSI broth microdilution method; format: functional; settings: ATCC 33591, 18 h
[21] = system: Staphylococcus aureus; test: Antibacterial activity against methicillin-sensitive Staphylococcus aureus 15 after 18 hrs by CLSI broth microdilution method; format: functional; settings: Staphylococcus aureus, 15, 18 h
[22] = system: Staphylococcus aureus; test: Antibacterial activity against methicillin-sensitive Staphylococcus aureus 12-28 after 18 hrs by CLSI broth microdilution method; format: functional; settings: 12-28, 18 h
[23] = system: Enterococcus faecalis; test: Antibacterial activity against vancomycin-resistant Enterococcus faecalis ATCC 51299 after 18 hrs by CLSI broth microdilution method; format: functional; settings: ATCC 51299, 18 h
[24] = system: Enterococcus faecalis; test: Antibacterial activity against vancomycin-sensitive Enterococcus faecalis 12-5 after 18 hrs by CLSI broth microdilution method; format: functional; settings: 12-5, 18 h
[25] = system: Enterococcus faecium; test: Antibacterial activity against vancomycin-resistant Enterococcus faecium 12-1 after 18 hrs by CLSI broth microdilution method; format: functional; settings: 12-1, 18 h
[26] = system: Escherichia coli; test: Antibacterial activity against extended-spectrum beta-lactamase deficient Escherichia coli 1515 after 18 hrs by CLSI broth microdilution method; format: functional; settings: Escherichia coli, 1515, 18 h
[27] = system: Escherichia coli; test: Antibacterial activity against extended-spectrum beta-lactamase deficient Escherichia coli 12-14 after 18 hrs by CLSI broth microdilution method; format: functional; settings: 12-14, 18 h
[28] = system: Klebsiella pneumoniae; test: Antibacterial activity against extended-spectrum beta-lactamase deficient Klebsiella pneumoniae 7 after 18 hrs by CLSI broth microdilution method; format: functional; settings: Klebsiella pneumoniae, 7, 18 h
[29] = system: Klebsiella pneumoniae; test: Antibacterial activity against extended-spectrum beta-lactamase deficient Klebsiella pneumoniae 12-4 after 18 hrs by CLSI broth microdilution method; format: functional; settings: 12-4, 18 h
[30] = system: Pseudomonas aeruginosa; test: Antibacterial activity against Pseudomonas aeruginosa PAO1 after 18 hrs by CLSI broth microdilution method; format: functional; settings: PAO1, 18 h
[31] = system: Pseudomonas aeruginosa; test: Antibacterial activity against Pseudomonas aeruginosa 12-16 after 18 hrs by CLSI broth microdilution method; format: functional; settings: 12-16, 18 h
[32] = system: Klebsiella aerogenes; test: Antibacterial activity against Enterobacter aerogenes ATCC 13048 after 18 hrs by CLSI broth microdilution method; format: functional; settings: ATCC 13048, 18 h
[33] = system: Serratia marcescens; test: Antibacterial activity against Serratia marcescens ATCC 21074 after 18 hrs by CLSI broth microdilution method; format: functional; settings: ATCC 21074, 18 h
[34] = system: Providencia rettgeri; test: Antibacterial activity against Providencia rettgeri ATCC 31052 after 18 hrs by CLSI broth microdilution method; format: functional; settings: ATCC 31052, 18 h
[35] = system: Proteus vulgaris; test: Antibacterial activity against Proteus vulgaris ATCC 29905 after 18 hrs by CLSI broth microdilution method; format: functional; settings: ATCC 29905, 18 h
[36] = system: Stenotrophomonas maltophilia; test: Antibacterial activity against Stenotrophomonas maltophilia ATCC 13636 after 18 hrs by CLSI broth microdilution method; format: functional; settings: ATCC 13636, 18 h
[37] = system: Citrobacter freundii; test: Antibacterial activity against Citrobacter freundii ATCC 43864 after 18 hrs by CLSI broth microdilution method; format: functional; settings: ATCC 43864, 18 h

Structure (SMILES)	MIC [1]	MIC [2]	MIC [3]	MIC [4]	MIC [5]	MIC [6]	MIC [7]	MIC [8]	MIC [9]	MIC [10]	MIC [11]	MIC [12]	MIC [13]	MIC [14]	MIC [15]	MIC [16]	MIC [17]	CC50 at 48 h [18]	MIC [19]	MIC [20]	other results
c1cc2cc(-c3ccc(-c4cc5ccc(C6=NCCCN6)cc5[nH]4)cc3)[nH]c2cc1C1=NCCCN1	0.25 µg/mL (≈ 0.529 µM)	0.25 µg/mL (≈ 0.529 µM)	0.25 µg/mL (≈ 0.529 µM)	0.25 µg/mL (≈ 0.529 µM)	0.5 µg/mL (≈ 1.06 µM)	0.5 µg/mL (≈ 1.06 µM)	0.25 µg/mL (≈ 0.529 µM)	1 µg/mL (≈ 2.12 µM)	4 µg/mL (≈ 8.46 µM)	8 µg/mL (≈ 16.9 µM)	32 µg/mL (≈ 67.7 µM)	16 µg/mL (≈ 33.9 µM)	8 µg/mL (≈ 16.9 µM)	4 µg/mL (≈ 8.46 µM)	64 µg/mL (≈ 135 µM)	8 µg/mL (≈ 16.9 µM)	128 µg/mL (≈ 271 µM)	4.33 µg/mL (≈ 9.16 µM)	0.25 µg/mL (≈ 0.529 µM)	0.25 µg/mL (≈ 0.529 µM)	MIC [21]: 0.25 µg/mL (≈ 0.529 µM); MIC [22]: 0.25 µg/mL (≈ 0.529 µM); MIC [23]: 0.5 µg/mL (≈ 1.06 µM); MIC [24]: 0.5 µg/mL (≈ 1.06 µM); MIC [25]: 0.25 µg/mL (≈ 0.529 µM); MIC [26]: 8 µg/mL (≈ 16.9 µM); MIC [27]: 4 µg/mL (≈ 8.46 µM); MIC [28]: 8 µg/mL (≈ 16.9 µM); MIC [29]: 8 µg/mL (≈ 16.9 µM); MIC [30]: 4 µg/mL (≈ 8.46 µM); MIC [31]: 16 µg/mL (≈ 33.9 µM); MIC [32]: 8 µg/mL (≈ 16.9 µM); MIC [33]: 16 µg/mL (≈ 33.9 µM); MIC [34]: 8 µg/mL (≈ 16.9 µM); MIC [35]: 16 µg/mL (≈ 33.9 µM); MIC [36]: 4 µg/mL (≈ 8.46 µM); MIC [37]: 4 µg/mL (≈ 8.46 µM)
CNC(=N)c1ccc2cc(-c3ccc(-c4cc5ccc(C(=N)NC)cc5[nH]4)cc3)[nH]c2c1	0.12 µg/mL (≈ 0.285 µM)	0.25 µg/mL (≈ 0.595 µM)	0.25 µg/mL (≈ 0.595 µM)	0.25 µg/mL (≈ 0.595 µM)	2 µg/mL (≈ 4.76 µM)	1 µg/mL (≈ 2.38 µM)	0.5 µg/mL (≈ 1.19 µM)	2 µg/mL (≈ 4.76 µM)	4 µg/mL (≈ 9.51 µM)	8 µg/mL (≈ 19 µM)	64 µg/mL (≈ 152 µM)	64 µg/mL (≈ 152 µM)	32 µg/mL (≈ 76.1 µM)	16 µg/mL (≈ 38 µM)	128 µg/mL (≈ 304 µM)	8 µg/mL (≈ 19 µM)	64 µg/mL (≈ 152 µM)	28 µg/mL (≈ 66.6 µM)	0.12 µg/mL (≈ 0.285 µM)	0.25 µg/mL (≈ 0.595 µM)	MIC [21]: 0.25 µg/mL (≈ 0.595 µM); MIC [22]: 0.25 µg/mL (≈ 0.595 µM); MIC [23]: 2 µg/mL (≈ 4.76 µM); MIC [24]: 2 µg/mL (≈ 4.76 µM); MIC [25]: 0.5 µg/mL (≈ 1.19 µM); MIC [26]: 16 µg/mL (≈ 38 µM); MIC [27]: 8 µg/mL (≈ 19 µM); MIC [28]: 16 µg/mL (≈ 38 µM); MIC [29]: 32 µg/mL (≈ 76.1 µM); MIC [30]: 64 µg/mL (≈ 152 µM); MIC [31]: 64 µg/mL (≈ 152 µM); MIC [32]: 16 µg/mL (≈ 38 µM); MIC [33]: 64 µg/mL (≈ 152 µM); MIC [34]: 64 µg/mL (≈ 152 µM); MIC [35]: 64 µg/mL (≈ 152 µM); MIC [36]: 16 µg/mL (≈ 38 µM); MIC [37]: 16 µg/mL (≈ 38 µM)
